# US10071994B2, “N-sulfonyl homoserine lactone derivatives, preparation method and use thereof” (priority 2014, dated 2018)
# Experiments:
# [1] = system: C. violaceum CV026; assay: Preliminary screening of bacterial quorum sensing regulatory (agonistic/inhibitory) activity on LB plate; type: cell-based, Chromobacterium violaceum; settings: 1 μl of 0.065M DMSO solution spotted on LB plate with C. violaceum CV026, 30° C., 16-18 h; agonist: purple induced; inhibitor: white circle in presence of inducer C6-HSL
# Protocol: 1.1 Preparation work: compounds to be tested (Compounds 1-32 prepared in Example 1-32 and Intermediates 1-3) were weighed and then separately dissolved in 200 μl DMSO (dimethyl sulfoxide) to prepare a solution at a concentration of 0.065M. 5.0 mg inducer, N-hexanoyl homoserine lactone (C6—HSL, purchased from Sigma Company) was weighed and dissolved in 200 μl DMSO (at a concentration of 0.125M), the compounds and the inducer were all stored at 4° C. for further use. C. violaceum CV026 (donated by Professor McLean J C from Texas State University, the bacterium is the Tn-5 mutant of the wild type Chromobacterium violaceum ATCC31532; see Latifi, A., et al., Mol. Microbiol, 17, 333-343(1995) and Winson, M. K., et al., Proc. Natl. Acad. Sci. USA, 92, 9427-9431(1995)) was cultured under shaking in a shaker at 30° C., 200 rpm.
# 1.2 Method for preliminary screening of compounds having agonistic activity: 400 μl C. violaceum CV026 was added to 5 ml melted semi-solid LB culture medium (1% tryptone, 1% NaCl, and 0.5% yeast extract), and mixed homogeneously; the mixed culture medium was poured into a solid LB plate; when the mixed culture medium was solidified on the plate; 1 μl sample of the dissolved compound to be tested (Compounds 1-32 in Examples 1-32) was spotted on the plate; when the sample was dried in air, the plate was put in a 30° C. oven upside down and cultured for a period of 16-18 h. The agonistic activity of the compound was determined depending on whether purple strain was induced for C. violaceum CV026 on LB plate as well as the density of purple strain.
# 1.3 Method for preliminary screening of compounds having inhibitory activity: the inducer C6-HSL was diluted gradiently to 1000 times by means of 2-fold dilution; 15 μl of the diluted inducer and 400 μl C. violaceum CV026 in exponential phase were mixed homogeneously and then added to a 5 ml melted semi-solid LB culture medium; the mixture of inducer, C. violaceum, and semi-solid LB culture medium were poured onto a solid LB plate; when the mixture was solidified on the plate, 1 μl sample of the dissolved compound to be tested (Compounds 1-32 in Examples 1-32 and Intermediates 1-3) was spotted on the plate; when the sample was dried in air, the plate was put in a 30° C. oven upside down and was cultured for a period of 16-18 h. The inhibitory activity of a compound was preliminary determined depending on the size of the white circle appeared after C. violaceum CV026 was inhibited on LB plate.
# It is found, after preliminary screening, that 17 compounds according to the invention have bacterial quorum sensing regulatory activity, and the screening result was shown in Table 1.
# [2] = system: C. violaceum CV026; assay: Measurement of IC50 of compounds having an inhibitory effect on C. violaceum quorum sensing (purple pigment absorbance at 585 nm); type: cell-based; settings: Chromobacterium violaceum, CV026, read-out: IC50 of compounds having bacterial quorum sensing inhibitory activity
# Protocol: 2. Measurement of IC50 of Compounds Having an Inhibitory Effect on C. violaceum Quorum Sensing
# 2.1 The wells of a 12-well plate were marked as initial concentration group, 2, 4, 8, 16, 32, 64, 128, and 256 fold diluted group, DMSO group, and a blank control group from left to right and from up to bottom, respectively.
# 2.2 The monoclonal C. violaceum CV026 grew on LB solid plate was cultured to exponential phase in a 5 ml fresh LB liquid culture medium, and 50 μl was then taken for seeding in a 5 ml LB culture medium, and cultured until the optical density OD value was about 1.0. The culture was then mixed homogeneously with LB culture medium at a ratio of 1:9 (at an OD of about 0.15), and added to a 12-well plate in an amount of 2 ml/well.
# 2.3 The compounds having quorum sensing inhibitory activity in preliminarily screening were dissolved in DMSO (at a concentration of 0.065M), respectively, and then 10 μl was taken into 10 μl DMSO solution for 2-fold dilution, and so on. Each compound was gradiently diluted to a highest fold of 256 (gradient dilution of 2, 4, 8, 16, 32, 64, 128, 256 fold).
# 2.4 To each well, 15 μl 1000-fold diluted inducer C6-HSL (initial concentration of 0.125M) and 8 μl compound solution at each diluted gradient was added; to the DMSO group, 8 μl DMSO was added; to the blank control group, 8 μl LB culture medium was added. Finally, it was ensured that 2 ml culture in each of the 12-well plate was mixed homogeneously.
# 2.5 The 12-well plate was placed in a 30° C. shaker at 130 rpm and cultured for 10-12 h.
# 2.6 After the culture was finished, 1 ml culture was taken from each well and put in a 1.5 ml EP tube and then centrifuged at 12000 rpm for 10 mins. The supernatant of the culture was sucked out, and 500 μl DMSO was added to each EP tube to dissolve the purple pigment in the culture. […] 200 μl supernatant pigment was put in a 96-well culture plate, and measured for absorbance value at 585 nm by a Microplate Reader. The absorbance value and the corresponding concentration were plotted to get the IC50 value.
Compound,Regulatory activity (bacterial quorum sensing) [1],IC50 [2] [µM]
"O=C(Nc1ccc(S(=O)(=O)N[C@H]2CCOC2=O)cc1)c1ccc(Br)s1 [Compound 4, (s)-5-bromo-N-(4-(N-(2-oxotetrahydrofuran-3-yl)sulfamoyl)phenyl)thiophene-2-carb oxamide]",−,
"Cc1ccsc1C(=O)Nc1ccc(S(=O)(=O)N[C@H]2CCOC2=O)cc1 [Compound 8, (s)-3-methyl-N-(4-(N-(2-oxotetrahydrofuran-3-yl)sulfamoyl)phenyl)thiophene-2-carboxamide]",−,69.2 ± 1.42
"O=C(Nc1ccc(S(=O)(=O)N[C@H]2CCOC2=O)cc1)c1ccc([N+](=O)[O-])o1 [Compound 13, (s)-5-nitro-N-(4-(N-(2-oxotetrahydrofuran-3-yl)sulfamoyl)phenyl)furan-2-carboxamide]",−,
"O=C(Cc1ccc(Cl)cc1)Nc1ccc(S(=O)(=O)N[C@H]2CCOC2=O)cc1 [Compound 21, (S)-4-chloro-N-(4-(N-(2-oxotetrahydrofuran-3-yl)sulfamoyl)phenyl)benzeneacetamide]",−,
"Br.NC1CCOC1=O (stereo not shown) [Intermediate 1, (L)-homoserine lactone hydrobromide]",+,
"O=C(Nc1ccc(S(=O)(=O)NC2CCOC2=O)cc1)c1ccc[nH]1 (stereo not shown) [Compound 17, (s)-1H—N-(4-(N-(2-oxotetrahydrofuran-3-yl)sulfamoyl)phenyl)pyrrole-2-carboxamide]",−,
"O=C(Nc1ccc(S(=O)(=O)N[C@H]2CCOC2=O)cc1)c1ccco1 [Compound 11, (s)-N-(4-(N-(2-oxotetrahydrofuran-3-yl)sulfamoyl)phenyl)furan-2-carboxamide]",±,
"O=C(Nc1ccc(S(=O)(=O)N[C@H]2CCOC2=O)cc1)c1sccc1Cl [Compound 9, (s)-3-chloro-N-(4-(N-(2-oxotetrahydrofuran-3-yl)sulfamoyl)phenyl)thiophene-2-carb oxamide]",−,9.19 ± 0.34
"Cc1csc(C(=O)Nc2ccc(S(=O)(=O)N[C@H]3CCOC3=O)cc2)c1 [Compound 7, (s)-4-methyl-N-(4-(N-(2-oxotetrahydrofuran-3-yl)sulfamoyl)phenyl)thiophene-2-carboxamide]",−,
"O=C(Cc1ccc(F)cc1)Nc1ccc(S(=O)(=O)N[C@H]2CCOC2=O)cc1 [Compound 20, (S)-4-fluoro-N-(4-(N-(2-oxotetrahydrofuran-3-yl)sulfamoyl)phenyl)benzeneacetamide]",−,
"O=C(Nc1ccc(S(=O)(=O)N[C@H]2CCOC2=O)cc1)c1cc(Br)cs1 [Compound 6, (s)-4-bromo-N-(4-(N-(2-oxotetrahydrofuran-3-yl)sulfamoyl)phenyl)thiophene-2-carb oxamide]",−,
"Cc1occc1C(=O)Nc1ccc(S(=O)(=O)N[C@H]2CCOC2=O)cc1 [Compound 15, (s)-2-methyl-N-(4-(N-(2-oxotetrahydrofuran-3-yl)sulfamoyl)phenyl)furan-3-carboxamide]",−,
"O=C(Nc1ccc(S(=O)(=O)N[C@H]2CCOC2=O)cc1)c1ccsc1 [Compound 2, (s)-N-(4-(N-(2-oxotetrahydrofuran-3-yl)sulfamoyl)phenyl)thiophene-3-carboxamide]",−,
"O=C(Cc1ccccc1F)Nc1ccc(S(=O)(=O)N[C@H]2CCOC2=O)cc1 [Compound 27, (S)-2-fluoro-N-(4-(N-(2-oxotetrahydrofuran-3-yl)sulfamoyl)phenyl)benzeneacetamide]",+,
"O=C(Nc1ccc(S(=O)(=O)N[C@H]2CCOC2=O)cc1)c1ccoc1 [Compound 12, (s)-N-(4-(N-(2-oxotetrahydrofuran-3-yl)sulfamoyl)phenyl)furan-3-carboxamide]",−,
"O=C(Nc1ccc(S(=O)(=O)N[C@H]2CCOC2=O)cc1)c1cccs1 [Compound 1, (s)-N-(4-(N-(2-oxotetrahydrofuran-3-yl)sulfamoyl)phenyl)thiophene-2-carboxamide]",−,
"CC(=O)Nc1ccc(S(=O)(=O)N[C@H]2CCOC2=O)cc1 [Intermediate 2, (s)-N-(4-(N-(2-oxotetrahydrofuran-3-yl)sulfamoyl)phenyl)acetamide]",−,
"O=C(Nc1ccc(S(=O)(=O)N[C@H]2CCOC2=O)cc1)c1sccc1Br [Compound 10, (s)-3-bromo-N-(4-(N-(2-oxotetrahydrofuran-3-yl)sulfamoyl)phenyl)thiophene-2-carboxamide]",−,13.5 ± 0.54
"O=C(Nc1ccc(S(=O)(=O)N[C@H]2CCOC2=O)cc1)c1ccc(Cl)s1 [Compound 3, (s)-5-chloro-N-(4-(N-(2-oxotetrahydrofuran-3-yl)sulfamoyl)phenyl)thiophene-2-carb oxamide]",−,
